The values that follow come from patent publication US20140296178A1, “Combination Therapy with a Gallium Complex” (priority 2010, published 2014).

This experiment relates to multiple myeloma tumor cell line RPMI 8226. The experiment is described as follows: Promega Cell Titer-Glo antiproliferative assay, single agent and combination. Type of experiment: cell-based, human. Conditions: unit from figure X axis. As to the method:
The antiproliferative activity of tris(8-quinolinolato)gallium(III) and lenalidomide against the human multiple myeloma tumor cell line RPMI 8226 was determined with Promega's Cell Titer-Glo® assay. The human tumor cells were placed in a 96-well microculture plate at the appropriate density for 96 hours of total growth time. After 24 hours of incubation in a humidified incubator at 37° C. with 5% CO2 and 95% air, serially diluted test agents in growth medium were added to each well. After 96 total hours of culture in a CO2 incubator, the plates were processed with Cell Titer-Glo (Promega #G7571) according to manufacturer's instructions. Luminescence was detected using a Tecan GENios microplate reader. Percent inhibition of cell growth was calculated relative to untreated control wells. All tests were performed in duplicate at each concentration level. The IC50 value for the test agents was estimated using Prism 3.03 by curve-fitting the data using the following four parameter-logistic equation: […]
The same Promega Cell Titer-Glo® assay described above was used in the combination study. […] After 96 hours, the cell number was determined with the Cell Titer Glo® assay as described above. […]

A word on the IC50: it is the concentration that gives 50% inhibition.

On to `[Ga+3].[O-]c1cccc2cccnc12.[O-]c1cccc2cccnc12.[O-]c1cccc2cccnc12` [tris(8-quinolinolato)gallium(III)], for which the IC50 by setting is: (RPMI-8226, tris(8-quinolinolato)gallium(III) alone) about 900 nM; (RPMI-8226, with lenalidomide at a constant amount) 500 nM.
